Where “and” joins values, the source holds several entries; their conditions need not be identical. Equal entries are not always repeated. Entries after “also recorded” stand apart in the source; their conditions may differ.
Columns and labels:
CD30, IL-31 and IL-32α = experiment: Correlative biomarker analysis in plasma; type: in vivo, human
Protocol: Assessment of CD30 and soluble IL-2 receptor (sIL-2R) for PTCL and cutaneous T-cell attracting chemokine (CTACK), IL-31 and IL-32α for CTCL were performed in plasma at screening, pre-dose and after 1 h on Day 1 of Cycle 3, at EOT and/or to confirm a response.

relapsed/refractory CTCL = experiment: Efficacy assessment (ORR, DoR), CTCL patients; type: in vivo, human; details: for Median DoR (95% CI) / ORR (95% CI): CTCL
Protocol: Efficacy assessments included radiological, bone marrow biopsy/aspiration and skin assessments. In some cases, bone marrow disease alone was used for disease assessment. In these cases, response was reported as CR or non-CR.
In CTCL patients, assessment of skin lesions was performed at screening, Day 1 of Cycle 3 and 5, approximately 12 weeks thereafter and at the end of treatment (EOT). Skin photographs were obtained for half body global and up to 5 selected representative index lesions at baseline, at Day 1 of Cycle 3, EOT, at PR/CR/progressive disease (PD) and as required as per the discretion of the Investigator. In case of nodal involvement, radiological assessment was performed at screening, Day 1 of Cycle 3 and 5 and approximately 12 weeks thereafter. Skin biopsy was performed from the most indurated area at screening, on C3D1 and to confirm a CR.
The efficacy parameters included ORR and DoR. Revised Response Criteria for Malignant Lymphoma (Cheson 2007) was used for evaluation of PTCL [21]. International Society for Cutaneous Lymphomas Response Criteria for Mycosis Fungoides and Sezary Syndrome (SS) and Cutaneous Lymphoma Task Force of the European Organization for Research and Treatment of Cancer criteria were used for evaluation of CTCL patients. For skin scoring, the modified Severity Weighted Assessment Tool was used. For local index lesion skin scoring, the Composite Assessment of Index Lesion Severity was used.

[1] = test system: patient-derived primary cell lines representative of B and T lymphoma cell lines; parameters: method as in doi:10.1182/blood.V122.21.4418.4418; details: cited from earlier work
[2] = test system: malignant patient derived primary CTCL cells; parameters: method as in ref 18 = [18]; 18. Mao G. Viswanadha S. Rhizen, Switzerland Unpublished work 2013; details: cited from earlier work
[3] = CTCL group, Cycle 3 Day 1 compared to baseline, correlated with responses
[4] = Dose Escalation 800 mg Fasting, N = 2
[5] = Dose Escalation 800 mg Fed, N = 4
[6] = Dose Expansion 800 mg Fasting, N = 12

**Q.** For CC[C@H](Nc1ncnc2[nH]cnc12)c1oc2ccccc2c(=O)c1-c1cccc(F)c1 [Tenalisib], which “Plasma IL-31 levels” value (CD30, IL-31 and IL-32α; [3]) is on record?
**A.** marked downregulation; also recorded: reductions

**Q.** What about the “Plasma IL-32α levels” value (CD30, IL-31 and IL-32α; [3]) of the same molecule?
**A.** marked downregulation; also recorded: reductions

**Q.** What about the “Plasma CD30 levels” value (CD30, IL-31 and IL-32α; PTCL patients, baseline to Cycle 3 Day 1, correlated with response) of the same molecule?
**A.** marked downregulation; also recorded: decrease in CD30 levels

**Q.** And the “Partial response (PR), number of patients” value (relapsed/refractory CTCL; CTCL patients)?
**A.** 9 patients

**Q.** And the “Median DoR (95% CI)” value (relapsed/refractory CTCL; Cumulative Total, N = 20)?
**A.** 3.8 months and 3.8 (2.3, 12.8) months

**Q.** And the “ORR (95% CI)” value (relapsed/refractory CTCL; Cumulative Total, N = 20)?
**A.** 45% and 45.0 (23.1, 68.5) %

**Q.** What about the “ORR (95% CI)” value (relapsed/refractory CTCL; Dose Escalation 200 mg, N = 1) of the same molecule?
**A.** 0.0 (0.0, 97.5) %

**Q.** And the “Median DoR (95% CI)” value (relapsed/refractory CTCL; Dose Escalation 400 mg, N = 1)?
**A.** 3.8 (-,-) months

**Q.** And the “ORR (95% CI)” value (relapsed/refractory CTCL; Dose Escalation 400 mg, N = 1)?
**A.** 100.0 (2.5, 100.0) %

**Q.** What about the “Median DoR (95% CI)” value (relapsed/refractory CTCL; [4]) of the same molecule?
**A.** 2.3 (-,-) months

**Q.** And the “ORR (95% CI)” value (relapsed/refractory CTCL; [4])?
**A.** 50.0 (1.3, 98.7) %

**Q.** And the “Median DoR (95% CI)” value (relapsed/refractory CTCL; [5])?
**A.** 3.3 (1.7, 4.9) months

**Q.** And the “ORR (95% CI)” value (relapsed/refractory CTCL; [5])?
**A.** 50.0 (6.8, 93.2) %

**Q.** And the “Median DoR (95% CI)” value (relapsed/refractory CTCL; Dose Escalation Total, N = 8)?
**A.** 3.05 (1.7, 4.6) months

**Q.** What about the “ORR (95% CI)” value (relapsed/refractory CTCL; Dose Escalation Total, N = 8) of the same molecule?
**A.** 50.0 (15.7, 84.3) %

**Q.** And the “Median DoR (95% CI)” value (relapsed/refractory CTCL; [6])?
**A.** 10.3 (2.6, 19.6) months

**Q.** And the “ORR (95% CI)” value (relapsed/refractory CTCL; [6])?
**A.** 41.7 (15.2, 72.3) %

**Q.** What about the “Apoptotic and anti-proliferative activity” value [1] of the same molecule?
**A.** demonstrated apoptotic and anti-proliferative activity

**Q.** And the Ex-vivo activity [2]?
**A.** shown ex-vivo activity

Reference: paper PMC7463651, “Phase I/Ib Study of Tenalisib (RP6530), a Dual PI3K δ/γ Inhibitor in Patients with Relapsed/Refractory T-Cell Lymphoma” (Cancers, 2020)
